In US6342368B1, “WD-40-derived peptides and uses thereof” (The Board of Trustees of the Leland Stanford Junior …, priority 1994, dated 2002):
“Also recorded” adds a separate entry of the source.

Tests used:
[1] = system: PKC; assay: PKC autophosphorylation; type: biochemical, rat; conditions: peptide 10 μM; absence of PKC activators
Experimental: Rat brain PKC (˜10 nM) was incubated with mild agitation in a final volume of 250 μl of overlay buffer, as in Example 1 either with anti-βPKC pseudosubstrate antibodies (1:10 dilution, Life Technologies, Gaithersburg, Md.) or with the indicated peptide (10 μM). Where indicated, PS (50 μg/ml), DG (0.8 μg/ml) and CaCl2 (1 mM) were also added. The amount of autophosphorylation was determined after 2 hours for the reaction with the anti-pseudosubstrate antibodies, or after 15 minutes for the other samples. 50 μl of a buffer comprised of 20 mM Tris-HCl (pH 7.5), 20 mM MgCl2, 20 μM ATP and 5 μci/ml [γ-^32P]ATP. The mixture was incubated for 15 minutes at room temperature and the reaction was stopped by adding 60 μl sample buffer (see Example 9). The samples were then boiled for 10 minutes, loaded onto a 10% SDS-PAGE mini gel and electrophoresed. The gel was fixed with 50% methanol and 10% acetic acid for 1 hour, and the autophosphorylation of PKC was determined by autoradiography.
The results in FIG. 8 show PKC autophosphorylation in the presence of DG, PS, and calcium (lane 1), in the presence of EGTA (lane 2), in the presence of anti-βPKC pseudosubstrate antibodies (diluted 1:10 in 20 mM Tris-HCl; lane 3), in the presence of peptide rVI (SEQ ID NO:7; 10 μM; lane 4), in the presence of peptide I (SEQ ID NO:1; 10 μM; lane 5), or in the presence of control peptide (SEQ ID NO:9; 10 μM; lane 6).

[2] = target: T1, βPKC (Rattus norvegicus, UniProt P68403); assay: Sensitivity of βPKC to Arg-C endopeptidase (nicking); type: biochemical; conditions: low activators: 2.5 μg/ml PS and 50 μM CaCl2; for nicking of βPKC by Arg-C (78 kDa fragment): peptide 10 μM
T1 construct: All the solutions contained 5 nM rat brain PKC; from tissue; host or cells: rat brain
T1 sequence (P68403 whole entry, the tested form may be a part): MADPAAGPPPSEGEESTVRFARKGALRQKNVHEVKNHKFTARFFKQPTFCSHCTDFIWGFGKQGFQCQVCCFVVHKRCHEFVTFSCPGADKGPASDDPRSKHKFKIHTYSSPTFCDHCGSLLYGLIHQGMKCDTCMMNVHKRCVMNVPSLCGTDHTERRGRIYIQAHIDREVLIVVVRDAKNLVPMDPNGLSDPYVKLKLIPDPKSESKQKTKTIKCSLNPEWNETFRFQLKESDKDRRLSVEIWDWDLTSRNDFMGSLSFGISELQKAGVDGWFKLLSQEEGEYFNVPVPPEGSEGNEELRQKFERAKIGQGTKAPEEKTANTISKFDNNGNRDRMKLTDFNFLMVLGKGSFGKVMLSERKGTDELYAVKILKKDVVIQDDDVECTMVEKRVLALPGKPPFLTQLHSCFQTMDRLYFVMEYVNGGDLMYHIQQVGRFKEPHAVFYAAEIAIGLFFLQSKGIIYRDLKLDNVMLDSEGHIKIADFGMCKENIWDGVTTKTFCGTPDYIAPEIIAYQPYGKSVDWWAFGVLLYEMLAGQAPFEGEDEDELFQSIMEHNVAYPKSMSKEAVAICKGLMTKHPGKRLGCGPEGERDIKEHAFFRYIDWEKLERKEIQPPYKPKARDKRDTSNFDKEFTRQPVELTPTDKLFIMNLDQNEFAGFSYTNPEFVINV
Description: Upon activation of PKC, a pseudosubstrate autoinhibitory sequence at the N-terminus of the molecule dissociates from the catalytic site and becomes sensitive to endopeptidase Arg-C (Orr, et al.). In the absence of PKC activators, exposure of the 80 kDa βPKC to endopeptidase Arg-C has no effect on the enzyme (see FIG. 7, lane 1). In the presence of the PKC activators PS, DG and calcium, however, exposure of βPKC to Arg-C results in a “nicking” of the PKC (i.e. limited proteolysis generating a 78 kDa fragment and several small fragments (see FIG. 7, lane 2)). Continued exposure to Arg-C results in the disappearance of βPKC (Orr, et al.). The present experiment tests whether peptides derived from the WD-40 region of RACK1 alter the sensitivity of βPKC to endopeptidase Arg-C.
The methods used to assay Arg-C sensitivity are a modification of methods described by Orr, et al. Rat brain PKC (˜5 nM) was incubated at room temperature in 500 μl of 20 mM Tris-HCl buffer (pH 7.5) alone or with Arg-C (5 units/ml) in the presence or absence of the indicated peptides (final concentration 10 μM or as indicated), PS, DG, and calcium (as indicated). 50 μl aliquots were removed into 20 μl of sample buffer during the reaction as indicated (samples in all the lanes were incubated for 30 minutes , except lanes 5, and 6, which were incubated for 5 and 15 minutes, respectively). The samples were boiled for 10 minutes at 80° C. and loaded onto 8% SDS-PAGE. βPKC was detected by Western blot analysis using anti-βPKC antibodies as described in Examples 6 and 8.
PKC was incubated for the indicated time alone (lane 1) or in the presence of Arg-C (lanes 2-9), with DG (0.8 μg/ml), PS (50 μg/ml) and CaCl2 (1 mM; lane 2), with PS (50 μg/ml) and CaCl2 (1 mM; lane 3), with PS (2.5 μg/ml) and CaCl2 (50 μM; lane 4); with PS (2.5 μg/ml), CaCl2 (50 μM) and with either peptide rVI (SEQ ID NO:7; 10 μM; lanes 5-7), control peptide (SEQ ID NO:9; lane 8) or with peptide I (SEQ ID NO:1; lane 9).

[3] = system: βPKC; assay: βPKC translocation (soluble vs particulate fraction) in Xenopus oocytes; type: cell-based; conditions: peptide 50 μM microinjected; for insulin (hormone)-induced βPKC translocation: 60 min after insulin; for βPKC distribution / translocation in the absence of insulin treatment: untreated oocytes, 60 min
Experimental: Insulin causes the translocation of βPKC, but not other PKC isozymes, from a cytosolic form to a membrane-associated form, as evidenced by the relative levels of PKC in the soluble vs. the particulate fraction of oocyte homogenate. To assess the effects of RACK1 WD-40-derived peptides on insulin-induced PKC translocation, 50 nl of a 20 mM NaCl solution containing the indicated peptides were microinjected into Xenopus oocytes. The oocytes were then homogenized, and the relative amount of PKC in the soluble and particulate fractions was assayed. The protocol followed was a modification of a method described by Smith, et al. (1992).
Batches of 50 oocytes were microinjected with either peptide rVI (SEQ ID NO:7; 50 μM; lanes 3, 4), peptide I (SEQ ID NO:1; 50 μM, lanes 7, 8) or injection solution (NaCl 20 mM, lanes 1,2 and 5,6). Homogenates from each batch were prepared 60 minutes after microinjection (lanes 1-4) or 60 minutes after addition of insulin (lanes 5-8). The homogenates were centrifuged at 10,000 g for 3 minutes, the upper layer (containing fat and yolk) was removed, and the remainder was frozen at −70° C. Prior to use, the samples were thawed, 200 μl homogenization buffer was added and the samples were centrifuged at 100,000 g for 30 minutes at 4° C. The supernatants (soluble fraction) were removed and concentrated to 20 μl using “CENTRICON” concentrators (Amicon,Beverly, Mass.). The pellets (particulate fractions) were dissolved in 20 μl of homogenization buffer. The samples were resolved on an 8% SDS/PAGE gel and blotted onto nitrocellulose. The amount of PKC in each fraction was determined by Western blot using anti-βPKC antibodies (1:1000 dilution; Seikagaku Kogyo, Tokyo, Japan). Bound primary antibodies were detected by chemiluminescence as described in Example 3, part C.

Substance | PKC autophosphorylation relative to that with optimal PS, DG and calcium [1] | lowest peptide concentration sufficient to result in nicking activity [2] | nicking of βPKC by Arg-C (78 kDa fragment) [2] | insulin (hormone)-induced βPKC translocation [3] | βPKC distribution / translocation in the absence of insulin treatment [3] | induction of PKC autophosphorylation (in words) [1]
peptide rVI: eight amino acid peptide identical to a segment of RACK1 WD-40 repeat VI (DIINALCF) | over 80% | 10 nM | time-dependent appearance of the 78 kDa nicked PKC fragment | augments hormone-induced translocation | induced βPKC translocation | 
peptide I: 15-residue peptide homologous to a sequence in the sixth WD-40 repeat of RACK1; PKC antagonist (KGDYEKILVALCGGN) |  |  | did not result in appreciable nicking activity; also recorded: did not occur | inhibited hormone-induced translocation; also recorded: inhibited insulin-induced βPKC translocation | did not affect βPKC distribution | No autophosphorylation; also recorded: Neither peptide I nor control peptide induced PKC autophosphorylation
